Values after ≈ are worked out from the molar mass of the structure shown. Where two headings read alike, the source gives them in different places.
What was measured:
[1] = test system: Septoria tritici MUCL45408; assay: Minimum inhibitory concentration (MIC), S. tritici (ATP quantification); format: cell-based; conditions: for MIC: Zymoseptoria tritici, read-out: MIC St
Experimental: (§1) The minimum inhibitory concentration (MIC) of the synthesized compounds was initially determined against three microbial indicator strains (Escherichia coli ATCC35218, […] ATCC33592, Septoria tritici MUCL45408). […]
(§2) 2. Microbial and parasitological studies
(§3) The minimum inhibitory concentration (MIC) of the synthesized compounds was determined against three microbial indicator strains (E. coli ATCC35218, S. aureus ATCC33592 and S. tritici MUCL45408) as previously described.1,2 All samples were dissolved in DMSO and tested in triplicate. Briefly, a pre-culture of E. coli and S. aureus was prepared by incubating the strains in cation adjusted Mueller Hinton 2 broth (Becton Dickinson, Sparks, NV, USA) at 37°C and 180 rpm overnight. The cell density of adjusted to 5 × 10^5 cells/mL before assays were incubated at 37 °C, 180 rpm and 85% rH. Three distinct dilution series of standard antibiotics (gentamicin, rifampicin, and tetracycline) were used as positive controls on each assay plate. Inoculated medium without test compound or positive control was used as negative control.
Medium background was averaged from 5 replicates. The turbidity of each well was measured with a microplate spectrophotometer at 600 nm (LUMIstar® Omega, BMG Labtech) and growth inhibition was calculated relative to the absorption of the controls. For S. tritici MUCL45408 inoculated at a density of 1 × 10^5 cells/mL in potato […]
dextrose medium. Septoria assay plates were incubated for 4 days at 25 °C, 180 rpm and 85% rH. Tebuconazole, amphotericin B, and nystatin were used as positive controls. Cell viability was evaluated via ATP quantification (BacTiter-Glo™, Promega GmbH, Walldorf, Germany) according to the manufacturer’s instructions. […]

C. elegans DC19 = assay: whole plant or invertebrate; format: cell-based, Caenorhabditis elegans
Description: (§4) The cuticle of C. elegans strain DC19 is known to be more permeable for small molecules compared to the wildtype N2.[30] DC19 is thereby considered an informative drug-sensitive test organism. In our assays, we determined the minimum mobility inhibitory concentration (MMIC) as a proxy for anthelmintic activity. […] In contrast, MMICs of some small molecule anthelmintics such as albendazole, mebendazole or PF-1022A were lower for DC19 (Fig. S1 ^†). […]
(§5) 2.2 In vitro tests against Caenorhabditis Elegans
(§6) The minimal motility inhibitory concentration (MMIC) of compounds 1-22 against C. elegans was determined as described before.3 Both strains, C. elegans N2 and DC19 were treated identically. Briefly, pre-cultures of C.elegans were kept on NGM agar plates infused with auxotrophic E.coli OP50 as food source.4 After 4 days the plates contained sufficient gravid worms, respectively. Worms were washed from the plates with M9 buffer using wide bore pipette tips. Egg preparation was carried out by treating the harvested worms with an alkaline hypochlorite solution (5 M NaOH + 5 % NaOCl 1:2) in polypropylene tubes. Larvae and adult […]
(§7) We carried out 3 washing steps (M9 buffer) to remove carry-over hypochlorite solution. Subsequently, the eggs were incubated overnight in NGM broth on a rotator to yield synchronized hatched L1/L2 larvae. The larvae solution was adjusted to 100 worms/mL and supplemented with cholesterol (5 µg/mL), carbenicillin (25 µg/mL) and E.coli OP50 (0.5%). This assay solution was distributed into 96 well plates and incubated with a dilution series of compounds 1-22 (64-0.5 µg/mL). An additional eight-point dilution series of ivermecin (40 – 0.3 ng/mL) was used as positive control on each assay plate. Solvent background was controlled by supplementation of pure DMSO without any compound. Assays were incubated for 2 days at room temperature. Finally, a cell imaging multimode reader (Cytation™ 5) was used to record short videos (1.5 seconds) of each individual test well. The videos were used to evaluate the worm motility.

C. elegans N2 = assay: whole plant or invertebrate; format: cell-based, Caenorhabditis elegans; conditions: for minimal effective concentration: Caenorhabditis elegans, 48 h, read-out: MMIC N2
Description: as §4, §5, §6, §7

[2] = test system: Escherichia coli ATCC35218; assay: microbe, parasite or virus in culture; format: cell-based; conditions: ATCC35218, read-out: MIC Ec
Experimental: as §1, §2
as §3, with “and tetracycline) were used as positive controls on each assay plate. Inoculated medium without test compound or positive control was used as negative control.” left out
(§8) medium without test compound or positive control was used as negative control.
(§9) Medium background was averaged from 5 replicates. The turbidity of each well was […]

S. aureus ATCC33592 = assay: microbe, parasite or virus in culture; format: cell-based; conditions: Staphylococcus aureus, ATCC33592, read-out: MIC Sa
Experimental: as §1, §2
as §3, with “and tetracycline) were used as positive controls on each assay plate. Inoculated medium without test compound or positive control was used as negative control.” left out
as §8, §9

Schistosoma mansoni = assay: In vitro tests against Schistosoma mansoni (vitality parameters of adult worm pairs); format: cell-based
Experimental: Subsequently, we tested whether compounds with nematocidal activity display a broader activity also against parasitic flatworms. To this end, in vitro tests against the blood fluke S. mansoni were conducted (Fig. 4). The worms were incubated in presence of 10 and 20 μM of compounds 1–22 and phenotypic vitality parameters (separation of worm pairs, detachment of suckers from the bottom of the well and weakening of body movements) were assessed as previously described.[31] Compounds reaching 100% effect strength in one of the parameters within 7 days were considered active. Reduction of motility is considered most relevant for antischistosomal drug candidates.[32] In addition, loss of sucker activity would make parasites drifting off from their host habitat (mesenteric veins) and with pair separation, the production of pathology-causing eggs eventually ceases.[33] […] For some molecular targets e.g. glutamate and GABA chloride channels (ivermecin, abamectin) and β-tubulin (albendazole, mebendazole) the C. elegans assays results were transferable to Schistosoma, while for others e.g. acetylcholin mimetic (levamisole) the C. elegans MMIC was not predicative (Fig. S1 ^†).
2.2 Parasitological studies
Animal experiments were performed in accordance with Directive 2010/63/EU on the protection of animals used for scientific purposes and the German Animal Welfare Act. The experiments were approved by the Regional Council (Regierungspraesidium) Giessen (V54 – […]
A Liberian strain of S. mansoni was maintained in the freshwater snail Biomphalaria glabrata as intermediate host and Syrian hamsters (Mesocricetus auratus) as final host (Janvier Labs, France).5,6 Hamsters were infected at 8 weeks of age with 1,750 cercariae by using the paddling method.7 Adult worms were collected at 46 days p.i. by hepatoportal perfusion and cultured in M199 medium (Sigma-Aldrich, Germany) supplemented with 10% Newborn Calf Serum (NCS, Sigma-Aldrich), 1% 1 M HEPES (ThermoFisher Scientific, USA) and 1% ABAM solution (10,000 units/ml penicillin, 10 mg/ml streptomycin and […] amphotericin B; Sigma-Aldrich, Germany) at 37 °C, 5% CO2 and humidified atmosphere.
2.2.3. In vitro tests against Schistosoma mansoni
Test compounds were added at 10 µM or 20 µM in supplemented M199 medium to schistosomes (5 worm pairs per replicate) followed by a 7 d in vitro culture. Worms receiving the solvent DMSO at equal dilution served as negative control. The following vitality parameters were assessed every 24 h by bright field microscopy using a Leica DM IL inverted microscope and x2.5 objective lens: separation of worm pairs into male and female worms; detachment of suckers from the bottom; and weakening of body movements. Worm motility was scored as described previously, 8 with the scores 3 (normal motility), 2 (reduced motility), 1 (minimal and sporadic movements), 0 (no movements within 20 sec; dead worms). An average score of all worms per well was calculated to obtain a motility score. An average motility score of 0, separation of all pairs or detachment of all worms per well was considered

MDCK II cells = assay: In vitro cytotoxicity, CellTiter-Glo, MDCK II cells; conditions: 100 μM; for MDCKII cytotoxicity: 48 h, cell viability less than 80% relative to DMSO control = cytotoxic
[3] = Figure S1, common small molecule anthelminthics

C[C@@H]1[C@H](O)[C@@H](C)/C=C/C=C/C=C/C=C/C=C/C=C/C=C/[C@H](O[C@@H]2O[C@H](C)[C@@H](O)[C@H](N)[C@@H]2O)C[C@@H]2O[C@](O)(C[C@@H](O)C[C@@H](O)[C@H](O)CC[C@@H](O)C[C@@H](O)CC(=O)O[C@H]1C)C[C@H](O)[C@H]2C(=O)O [AMP, amphotericin B, reference compound]
MIC ([1]; MUCL45408, 96 h): 0.125 µg/mL (≈ 0.135 µM)

CCCSc1ccc2nc(NC(=O)OC)[nH]c2c1 [Albendazole, reference compound]
C. elegans MMIC DC19 (C. elegans DC19): < 0.08 µg/mL | C. elegans MMIC N2 (C. elegans N2): 0.16 µg/mL

CNC(=O)O/N=C/C(C)(C)SC [Aldicarb, reference compound]
C. elegans MMIC DC19 (C. elegans DC19; [3]): > 10 µg/mL | C. elegans MMIC N2 (C. elegans N2; [3]): > 10 µg/mL

CC1(C)CC(Cl)CN(Cc2cccc(CN3CC(Cl)CC(C)(C)C3)c2)C1 (centres unmarked) [Compound 1]
MIC [2]: > 64 µg/mL | MIC (S. aureus ATCC33592): > 64 µg/mL | MIC ([1]; MUCL45408, 96 h): 64 µg/mL (≈ 161 µM) | minimal effective concentration (C. elegans N2): 64 µg/mL | activity against S. mansoni (100% effect strength in one parameter within 7 days = active) (Schistosoma mansoni; 10 or 20 μM): Schistosoma-specific | motility score (Schistosoma mansoni; score 3 normal motility to 0 dead, paragraph on 20 μM): 1–1.2 | cytotoxicity against MDCK II (in words) (MDCK II cells): cytotoxic | MDCKII cytotoxicity (MDCK II cells): + (“+” (toxic))

CC1(C)CC(Cl)CN(Cc2cccc(CN3CC(Cl)CC(C)(C)C3)n2)C1 (centres unmarked) [Compound 6]
MIC [2]: > 64 µg/mL | MIC (S. aureus ATCC33592): 64 µg/mL (≈ 161 µM) | MIC ([1]; MUCL45408, 96 h): > 64 µg/mL | minimal effective concentration (C. elegans N2): 64 µg/mL | MDCKII cytotoxicity (MDCK II cells): + (“+” (toxic))

CCCCN1CC(Cl)CC(C)(C)C1 (centres unmarked) [Compound 16]
MIC [2]: > 64 µg/mL | MIC (S. aureus ATCC33592): > 64 µg/mL | MIC ([1]; MUCL45408, 96 h): > 64 µg/mL | minimal effective concentration (C. elegans DC19; Caenorhabditis elegans, 48 h, read-out: MMIC DC19): > 64 µg/mL | minimal effective concentration (C. elegans N2): > 64 µg/mL | MDCKII cytotoxicity (MDCK II cells): − (“−” (not toxic))

CNC(C)C1CCC(N)C(OC2C(N)CC(N)C(OC3OCC(C)(O)C(NC)C3O)C2O)O1 (centres unmarked) [GEN, gentamicin, reference compound]
MIC [2]: 1 µg/mL (≈ 2.09 µM) | MIC (S. aureus ATCC33592): 0.5 µg/mL (≈ 1.05 µM)

C[C@H](CCC(=O)O)C[C@H](C)C[C@H](C)C(=O)/C=C(\O)[C@H](C)C[C@H](C)C/C=C/[C@@H](C)[C@@H](O)[C@@H](C)[C@@H](O)C[C@@H]1CC[C@@](C)([C@H]2CC[C@@](C)([C@@H](C)O)O2)O1 [ION, ionomycin, reference compound]
MDCKII cytotoxicity (MDCK II cells): + (“+” (toxic))

c1ccc([C@H]2CN3CCSC3=N2)cc1 [Levamisole, reference compound]
C. elegans MMIC DC19 (C. elegans DC19): 0.3 µg/mL | C. elegans MMIC N2 (C. elegans N2): 0.3 µg/mL

COC(=O)Nc1nc2ccc(C(=O)c3ccccc3)cc2[nH]1 [Mebendazole, reference compound]
C. elegans MMIC DC19 (C. elegans DC19; [3]): 0.3 µg/mL | C. elegans MMIC N2 (C. elegans N2; [3]): 1.25 µg/mL

C[C@@H]1[C@H](O)[C@@H](C)/C=C/C=C/CC/C=C/C=C/C=C/C=C/C(O[C@H]2O[C@H](C)[C@@H](O)[C@H](N)[C@@H]2O)CC2O[C@](O)(CC(O)C(O)CCC(O)CC(O)CC(O)CC(=O)O[C@H]1C)CC(O)C2C(=O)O (some centres unmarked) [NYS, nystatin, reference compound]
MIC St ([1]; S. tritici MUCL45408, 4 days): 0.25 µg/mL (≈ 0.27 µM)

CC(=O)Oc1ccccc1C(=O)Nc1ncc([N+](=O)[O-])s1 [Nitazoxanide, reference compound]
C. elegans MMIC DC19 (C. elegans DC19; [3]): > 10 µg/mL | C. elegans MMIC N2 (C. elegans N2; [3]): > 10 µg/mL

CC(C)C[C@H]1C(=O)O[C@H](Cc2ccccc2)C(=O)N(C)[C@@H](CC(C)C)C(=O)O[C@H](C)C(=O)N(C)[C@@H](CC(C)C)C(=O)O[C@H](Cc2ccccc2)C(=O)N(C)[C@@H](CC(C)C)C(=O)O[C@H](C)C(=O)N1C [PF-1022A, reference compound]
C. elegans MMIC DC19 (C. elegans DC19; [3]): 2.5 µg/mL | C. elegans MMIC N2 (C. elegans N2; [3]): 10 µg/mL

O=C(C1CCCCC1)N1CC(=O)N2CCc3ccccc3C2C1 (centres unmarked) [Praziquantel, reference compound]
C. elegans MMIC DC19 (C. elegans DC19; [3]): > 10 µg/mL | C. elegans MMIC N2 (C. elegans N2; [3]): > 10 µg/mL

CO[C@H]1/C=C/O[C@@]2(C)Oc3c(C)c(O)c4c(O)c(c(/C=N/N5CCN(C)CC5)c(O)c4c3C2=O)NC(=O)/C(C)=C\C=C\[C@H](C)[C@H](O)[C@@H](C)[C@@H](O)[C@@H](C)[C@H](OC(C)=O)[C@@H]1C [RIF, rifampicin, reference compound]
MIC [2]: 4 µg/mL (≈ 4.86 µM) | MIC (S. aureus ATCC33592): > 64 µg/mL

CC(C)(C)C(O)(CCc1ccc(Cl)cc1)Cn1cncn1 (centres unmarked) [TEB, tebuconazole, reference compound]
MIC ([1]; 96 h, S. tritici MUCL45408, 4 days): > 0.03 µg/mL

Abamectin [reference compound]
C. elegans MMIC DC19 (C. elegans DC19; [3]): < 0.08 µg/mL | C. elegans MMIC N2 (C. elegans N2; [3]): < 0.08 µg/mL

ivermectin [IVR, reference compound]
MMIC DC19 (C. elegans DC19; C. elegans DC19, 2 days): 0.005 µg/mL | C. elegans MMIC DC19 (C. elegans DC19; [3]): 0.005 µg/mL | MMIC N2 (C. elegans N2; C. elegans N2, 2 days): 0.005 µg/mL | C. elegans MMIC N2 (C. elegans N2; [3]): 0.005 µg/mL
